Data published in US7407936B2, “Use of copolymer 1 and related peptides and polypeptides and T cells treated herewith for neuroprotective glaucoma therapy” (Yeda Research and Development Co. Ltd., priority 2000, dated 2008).

Legend:
[1] = batches of average molecular weight 23,000; Teitelbaum et al; cited from earlier work
[2] = test system: retinal ganglion cells (RGCs); test: Severe optic nerve crush injury in mice, RGC survival; assay type: in vivo, Balb/c mice; settings: 50 μg Cop-1 in CFA before severe crush; two weeks after injury; p<0.001
[3] = test system: retinal ganglion cells (RGCs); test: Glutamate toxicity in mice (intravitreal glutamate), RGC survival; assay type: in vivo, C57BL/6J mice
[4] = patients, cited from earlier work
[5] = test system: retinal ganglion cells (RGCs); test: Optic nerve crush injury in rats: secondary degeneration by retrograde labeling of RGCs; assay type: in vivo, Lewis rats; settings: mild crush; vaccinated with Cop 1 in IFA immediately, booster two days later; P<0.05
Protocol: Crush Injury of Optic Nerve. The optic nerve was subjected to crush injury as previously described (Duvdevani et al, 1990). Briefly, rats were deeply anesthetized by intraperitoneal (i.p.) injection of Rompun (xylazine, 10 mg/kg; Vitamed, Israel) and Vetalar (ketamine, 50 mg/kg; Fort Dodge Laboratories, Fort Dodge, Iowa). Using a binocular operating microscope, lateral canthotomy was performed in the right eye, and the conjunctiva was incised lateral to the cornea. After separation of the retractor bulbi muscles, the optic nerve was exposed intraorbitally by blunt dissection. Using calibrated cross-action forceps, the optic nerve was subjected to a crush injury 1-2 mm from the eye. […]
Measurement of Secondary Degeneration by Retrograde Labeling of Retinal Ganglion Cells. Secondary degeneration of the optic nerve axons and their attached retinal ganglion cells (RGCs) was measured after post-injury application of the fluorescent lipophilic dye, 4-(4-(didecylamino)styryl)-N-methylpyridinium iodide (4-Di-10-Asp) (Molecular Probes Europe BV, Netherlands), distally to the lesion site, two weeks after crush injury. Because only axons that are intact can transport the dye back to their cell bodies, application of the dye distally to the lesion site after two weeks ensures that only axons that survived both the primary damage and the secondary degeneration will be counted. […]

retinal ganglion cells = test: Ocular hypertension (laser-induced increased IOP) in rats, RGC survival; assay type: in vivo, Lewis rats; settings: immunized in CFA on the day of the first laser treatment; after 3 weeks; p<0.0001
[6] = test system: retinal ganglion cells (RGCs); test: NMDA toxicity in mice (intravitreal NMDA), RGC survival; assay type: in vivo; settings: immunized ten days before NMDA (75 nmole); p=0.55 vs PBS

Row | Substance | protecting and suppressing EAE [1] | RGC survival rates relative to non-immunized controls [2] | glutamate toxicity in controls relative to immunized mice ([3]; 75 μg Cop 1 in CFA ten days before 200 nmoles glutamate, RGCs counted seven days later) | mean percentage survival rate of RGCs versus PBS-injected ([3]; immunization 24 h after glutamate injection) | mean percentage survival rate of RGCs versus PBS-injected ([3]; immunization 48 h after glutamate injection) | rates of RGC survival versus PBS in adjuvant ([3]; immunized on the day of glutamate injection, adjuvant 0.5 or 5 mg/ml bacteria) | glutamate toxicity (RGC survival) after immunization ([3]; immunized ten days before glutamate, adjuvant 5 mg/ml bacteria) | number of relapses in exacerbating-remitting MS ([4]; Bornstein 1990, Sela 1990, Johnson 1994) | tolerability in clinical trials ([4]; Johnson et al, 1995) | neuroprotection (surviving RGCs) compared with PBS in IFA [5] | numbers of surviving retinal ganglion cells versus PBS/CFA controls (retinal ganglion cells) | protection from toxicity caused by NMDA (RGC survival) [6] | RGC survival after glutamate injection, effect of immunization ([3]; pMOG in CFA prior to glutamate (200 nmole), assessed 1 week later)
1 | Glatiramer acetate [Cop 1] | highly effective | significantly higher | about four | significantly higher | not significant | significantly higher | significant reduction | significantly reduce | well tolerated with only minor side reactions | significant neuroprotection | significantly higher | failed to protect | 
2 | GQFRVIGPGHPIRALVGDEAEL (listed as Homo sapiens) [pMOG, Myelin oligodendrocyte glycoprotein (MOG) peptide 1-22] |  |  |  |  |  |  |  |  |  |  |  |  | no evidence of a beneficial effect
